SMILES strings stand for the structures. Structures can show the parent of a compound that is named as a salt. Marks after values point to notes of the source that are not given here.

Data set [1] concerns mice forced to swim (duration of immobility). As to the kind of experiment: Behavioural Despair Test in mouse. The note with it: for Duration of Immobility (% change from ctrl): 30 min before test; for anti-depressant activity (in words): ip. It counts as in vivo. As to the method: Nefopam and (+)-nefopam have been evaluated in the Behavioural Despair Test, a model which detects antidepressant activity. This test was conducted according to the method of Porsolt et al., (1977—Arch. Int. Pharmacodyn., 229:327-336), in which mice are forced to swim in a situation from which they cannot escape rapidly become immobile. Antidepressants decrease the duration of immobility.
Mice (20-27 g male Rj: NMRI) were individually placed in a cylinder (height=24 cm, diameter=13 cm) containing 10 cm water (22° C.) from which they cannot escape. The mice were placed in the water for 6 minutes and the duration of immobility during the last 4 minutes was measured. All compounds were administered i.p. 30 minutes before the test, and compared with a vehicle control group. Imipramine (32 mg/kg i.p.), administered under the same experimental conditions, was used as reference substance.

The test system of data set [2] is formalin-induced paw licking model in mice. Kind of data set: Formalin-induced hyperalgesia (paw licking) in mouse. Format: in vivo. The note with it: for Nociception, hindpaw licking time, early phase: early phase (0-5 min after formalin); for Nociception, hindpaw licking time, early phase / Nociception, hindpaw licking time, late phase: 60 min before formalin, vs vehicle; for licking behaviour compared to vehicle control, first phase (in words): first phase (acute nociceptive pain), at both 60 and 100 mg/kg; for Nociception, hindpaw licking time, late phase: late phase (20-30 min after formalin); for paw licking time compared to vehicle control (in words): po, both phases; for licking behaviour, second phase (in words): second phase (persistent pain states), 100 mg/kg. The protocol:
Nefopam and (+)-nefopam have been evaluated in the formalin-induced paw licking model in mice. […] The late phase seems to be an inflammatory response and is a recognized model of persistent pain. This test may, therefore, be a useful indicator of analgesic efficacy in fibromyalgia. Compounds were evaluated for both an early stage response and a late stage response and compared against morphine as control.
Inflammation was induced by subplantar injection of a 5% formalin solution (0.02 ml) into the mouse right hindpaw (20-25 g male Rj: NMRI). Hindpaw licking time was continuously recorded in a blinded fashion between 0 to 5 minutes (early phase) and between 20 to 30 minutes (late phase) after formalin injection (Hunskaar etal., 1985—J. Neurosci. Methods; 14:69-76).
The test substances and vehicle were orally administered 60 min before formalin injection.

The conditions of data set [3]: conventional release preparations; cited from earlier work.
The test system of data set [4] is mice exposed to marbles (marble burying). As to the kind of experiment: Marble Burying Test in mouse. It counts as in vivo. To be noted: for Number of marbles buried (% change from ctrl): 30 min before test; for antidepressant and anxiolytic activity (in words): ip. The text has this:
Nefopam and (+)-nefopam have been evaluated in the Marble Burying Test, a model which detects anxiolytic/tranquillizing activity. The method follows that described by Broekkamp et al. (1986—Eur. J. Pharmacol., 126, 223-229). Mice exposed to novel object (marbles) will bury them in the sawdust floor covering. Anxiolytics decrease the number of marbles buried at non-sedative doses.
Mice are individually placed in transparent plastic cages (33×21×18 cm) with 5 cm of sawdust on the floor, and 25 marbles grouped in the centre of the cage. The cage is covered with an inverted plastic cage. Each test cage, together with the marbles, is impregnated with mouse odor beforehand, by leaving 10 mice in the cage for 15 minutes. These mice then play no further role in the experiment. The number of marbles covered by sawdust (⅔ or more) is counted at the end of a 30 minute test.
All compounds were administered i.p. 30 minutes before the test, and compared with a vehicle control group. Clobazam (8 mg/kg i.p.), administered under the same experimental conditions, was used as reference substance.

As to `CN1CCOC(c2ccccc2)c2ccccc2C1` (racemic) [Nefopam, 5-methyl-1-phenyl-3,4,5,6-tetrahydro-1H-2,5-benzoxazocine hydrochloride], the “Duration of Immobility (% change from ctrl)” value in data set [1] (20 mg/kg ip) was −42 % change from ctrl; in data set [1] (40 mg/kg ip) it was −85 * % change from ctrl; in data set [1] (60 mg/kg ip), −100 * % change from ctrl. In data set [1], the “anti-depressant activity (in words)” value is listed as “significant anti-depressant activity”. For the same molecule, the “Nociception, hindpaw licking time, early phase” value (“Nociception … early phase” for short) in data set [2] (30 mg/kg po) is −28%; in data set [2] (60 mg/kg po), −64%*; in data set [2] (100 mg/kg po) it was −85%*. Also, the “licking behaviour compared to vehicle control, first phase (in words)” value in data set [2] is recorded as “significant reduction in licking behaviour”. Moreover, the “Nociception, hindpaw licking time, late phase” value (“Nociception … late phase” below) is −41% in data set [2] (30 mg/kg po), −63%* in data set [2] (60 mg/kg po) and −89%* in data set [2] (100 mg/kg po). Moreover, the “paw licking time compared to vehicle control (in words)” value in data set [2] is listed as “dose-dependently decreased paw licking time”. Besides, in data set [2], the “licking behaviour, second phase (in words)” value was “significant reduction in licking behaviour”. The elimination half-life result in data set [3] is reported as “four”. The “Number of marbles buried (% change from ctrl)” value (from here on “Number … (% change from ctrl)”) in data set [4] (10 mg/kg ip) was −66 * % change from ctrl; in data set [4] (20 mg/kg ip), −98 * % change from ctrl; in data set [4] (40 mg/kg ip), −100 * % change from ctrl. For the same molecule, in data set [4], the “antidepressant and anxiolytic activity (in words)” value was “significant antidepressant and anxiolytic activity”.
Regarding `CN1CCO[C@@H](c2ccccc2)c2ccccc2C1` [(+)-Nefopam], the “Duration of Immobility (% change from ctrl)” value in data set [1] (20 mg/kg ip) is −38 % change from ctrl; in data set [1] (40 mg/kg ip) it was −92 * % change from ctrl; in data set [1] (60 mg/kg ip), −100 * % change from ctrl. For the same molecule, in data set [1], the “anti-depressant activity (in words)” value is recorded as “significant anti-depressant activity”. In addition, the “Nociception … early phase” value in data set [2] (30 mg/kg po) was −40%; in data set [2] (60 mg/kg po), −59%*; in data set [2] (100 mg/kg po), −86%*. In addition, the “licking behaviour compared to vehicle control, first phase (in words)” value in data set [2] is listed as “significant reduction in licking behaviour”. Also, the “Nociception … late phase” value in data set [2] (30 mg/kg po) is reported as −31%; in data set [2] (60 mg/kg po), −69%; in data set [2] (100 mg/kg po) it was −90%*. Moreover, the “paw licking time compared to vehicle control (in words)” value in data set [2] was “dose-dependently decreased paw licking time”. In data set [2], the “licking behaviour, second phase (in words)” value was “significant reduction in licking behaviour”. Also, the “Number … (% change from ctrl)” value in data set [4] (10 mg/kg ip) is on record as −56 * % change from ctrl; in data set [4] (20 mg/kg ip), −99 * % change from ctrl; in data set [4] (40 mg/kg ip), −100 * % change from ctrl. Moreover, in data set [4], the “antidepressant and anxiolytic activity (in words)” value is “significant antidepressant and anxiolytic activity”.
Turning to `CN1C(=O)CC(=O)N(c2ccccc2)c2cc(Cl)ccc21` [Clobazam], the “Number … (% change from ctrl)” value in data set [4] (32 mg/kg ip) was −75 * % change from ctrl.
On to `CN(C)CCCN1c2ccccc2CCc2ccccc21` [Imipramine], for which, in data set [1] (32 mg/kg ip), the “Duration of Immobility (% change from ctrl)” value was −80 * % change from ctrl.
Regarding `CN1CC[C@]23c4c5ccc(O)c4O[C@H]2[C@@H](O)C=C[C@H]3[C@H]1C5` [Morphine], in data set [2] (80 mg/kg po), the “Nociception … early phase” value was −98%* and the “Nociception … late phase” value was −98%*.

The values above are taken from patent US20080255079A1, “Therapeutic Use of Nefopam and Analogues Thereof” (priority 2005, published 2008).
